Our source for the MIC values is patent publication US10030047B2 (Hoffmann-La Roche Inc., priority 2015, dated 2018).

≈ marks a conversion by molar mass, not a printed value.

In this test the test system is A. baumannii strain ATCC19606. Nature of the test: Minimum inhibitory concentration (MIC) determination, microbroth dilution (CLSI). It counts as cell-based. The note with it: Acinetobacter baumannii; A. baumannii ATCC19606; CAMHB; read after 20 hours; >=80% growth inhibition; read-out: ATCC19606 MIC. In short, it runs like this:
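CLSI broth microdilution in cation-adjusted Mueller Hinton broth with twofold compound dilutions and ~5×10^5 CFU/ml inoculum, incubated at 35±2 °C. MIC read after 20 h as lowest concentration inhibiting ≥80% of growth, by eye and OD 600 nm.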
(In general: In broth dilution the organism is exposed to a series of concentrations in liquid medium.)
Turning to `Cc1[nH]c2ccccc2c1C[C@H]1C(=O)NCc2c(C(F)(F)F)ccc(Cl)c2Sc2ncccc2CN[C@@H](CCCN)C(=O)N[C@@H](CCCCN)C(=O)N1C` [Example 75, (11S,14S,17S)-14-(4-Amino-butyl)-11-(3-amino-propyl)-25-chloro-16-methyl-17-(2-methyl-1H-indol-3-ylmethyl)-22-trifluoromethyl-2-thia-4,10,13,16,19-pentaaza-tricyclo[19.4.0.0*3,8*]pentacosa-1(25),3(8),4,6,21,23-hexaene-12,15,18-trione], the MIC came to 0.12 µg/mL (≈ 0.152 µM).
Take `Cc1ccc2c(c1)CNC(=O)[C@H](Cc1c[nH]c3ccccc13)N(C)C(=O)[C@H](CCCCN)NC(=O)[C@H](CCCN)NCc1ccccc1S2` [Example 10, (12S,15S,18S)-15-(4-Amino-butyl)-18-(3-amino-propyl)-12-(1H-indol-3-ylmethyl)-6,13-dimethyl-2-thia-10,13,16,19-tetraaza-tricyclo[19.4.0.0*3,8*]pentacosa-1(21),3,5,7,22,24-hexaene-11,14,17-trione]: the MIC amounted to 2 µg/mL (≈ 2.92 µM).
Next, `CN1C(=O)[C@H](CCCCN)NC(=O)[C@H](CCCN)NCc2cccnc2Sc2c(Cl)ccc(-c3cccnc3)c2CNC(=O)[C@@H]1Cc1c[nH]c2ccccc12` [Example 191, (11S,14S,17S)-14-(4-Amino-butyl)-11-(3-amino-propyl)-25-chloro-17-(1H-indol-3-ylmethyl)-16-methyl-22-pyridin-3-yl-2-thia-4,10,13,16,19-pentaaza-tricyclo[19.4.0.0*3,8*]pentacosa-1(25),3(8),4,6,21,23-hexaene-12,15,18-trione]: 0.12 µg/mL (≈ 0.153 µM); `Cc1[nH]c2ccccc2c1C[C@H]1C(=O)NCc2cc(Cl)cc(Cl)c2Sc2ccccc2CN[C@@H](CCCN)C(=O)N[C@@H](CCCCN)C(=O)N1C` [Example 59, (12S,15S,18S)-15-(4-Amino-butyl)-18-(3-amino-propyl)-4,6-dichloro-13-methyl-12-(2-methyl-1H-indol-3-yl)-2-methyl)-2-thia-10,13,16,19-tetraaza-tricyclo[19.4.0.0*3,8*]pentacosa-1(21),3,5,7,22,24-hexaene-11,14,17-trione]: 0.5 µg/mL (≈ 0.664 µM).
`COc1cc(C)c2c(c1)CNC(=O)[C@H](Cc1c[nH]c3ccccc13)N(C)C(=O)[C@H](CCCCN)NC(=O)[C@H](CCCN)NCc1ccccc1S2` [Example 50, (12S,15S,18S)-15-(4-Amino-butyl)-18-(3-amino-propyl)-12-(1H-indol-3-ylmethyl)-6-methoxy-4,13-dimethyl-2-thia-10,13,16,19-tetraaza-tricyclo[19.4.0.0*3,8*]pentacosa-1(25),3,5,7,21,23-hexaene-11,14,17-trione]: the MIC amounted to 0.25 µg/mL (≈ 0.35 µM).
With `CN1C(=O)[C@H](CCCCN)NC(=O)[C@H](CCCN)NCc2cccnc2Sc2c(Cl)cc(-c3ccncc3)cc2CNC(=O)[C@@H]1Cc1c[nH]c2ccccc12` [Example 100, (11S,14S,17S)-14-(4-Amino-butyl)-11-(3-amino-propyl)-25-chloro-17-(1H-indol-3-ylmethyl)-16-methyl-23-pyridin-4-yl-2-thia-4,10,13,16,19-pentaaza-tricyclo[19.4.0.0*3,8*]pentacosa-1(25),3,5,7,21,23-hexaene-12,15,18-trione], the MIC was determined as 2 µg/mL (≈ 2.56 µM).
For the compound `CN1C(=O)[C@H](CCCCN)NC(=O)[C@H](CNC(=N)N)NCc2ccccc2Sc2ccccc2CNC(=O)[C@@H]1Cc1c[nH]c2ccccc12` [Example 5, N-[(11S,14S,17S)-14-(4-Amino-butyl)-17-(1H-indol-3-ylmethyl)-16-methyl-12,15,18-trioxo-2-thia-10,13,16,19-tetraaza-tricyclo[19.4.0.0*3,8*]pentacosa-1(25),3(8),4,6,21,23-hexaen-11-ylmethyl]-guanidine], the MIC stood at 32 µg/mL (≈ 46.8 µM).
The result for `Cc1[nH]c2ccccc2c1C[C@H]1C(=O)NCc2cc(-c3ccnc(N4CCN(C)CC4)c3)cc(Cl)c2Sc2ncccc2CN[C@@H](CCCN)C(=O)N[C@@H](CCCCN)C(=O)N1C` [Example 203, (7S,10S,13S)— 10-(4-aminobutyl)-7-(3-aminopropyl)-20-chloro-6,7,9,10,12,13,15,16-octahydro-12-methyl-13-[(2-methyl-1H-indol-3-yl)methyl]-18-[2-(4-methyl-1-piperazinyl)-4-pyridinyl]pyrido[2,3-b][1,5,8,11,14]benzothiatetraazacycloheptadecine-8,11,14(5H)-trione] reads 1 µg/mL (≈ 1.12 µM).
With `Cc1noc(C)c1-c1cc(Cl)c2c(c1)CNC(=O)[C@H](Cc1c[nH]c3ccccc13)N(C)C(=O)[C@H](CCCCN)NC(=O)[C@H](CCC(N)=O)NCc1cccnc1S2` [Example 169, 3-[(11S,14S,17S)-14-(4-Amino-butyl)-25-chloro-23-(3,5-dimethyl-isoxazol-4-yl)-17-(1H-indol-3-ylmethyl)-16-methyl-12,15,18-trioxo-2-thia-4,10,13,16,19-pentaaza-tricyclo[19.4.0.0*3,8*]pentacosa-1(25),3(8),4,6,21,23-hexaen-11-yl]-propionamide], the MIC stood at 4 µg/mL (≈ 4.91 µM).
For the compound `CN1C(=O)[C@H](CCCCN)NC(=O)[C@H](CCCN)NCc2cccnc2Sc2c(Cl)cc(-c3ccnc(C#N)c3)cc2CNC(=O)[C@@H]1Cc1c[nH]c2ccccc12` [Example 229, 4-[(11S,14S,17S)-14-(4-Amino-butyl)-11-(3-amino-propyl)-25-chloro-17-(1H-indol-3-ylmethyl)-16-methyl-12,15,18-trioxo-2-thia-4,10,13,16,19-pentaaza-tricyclo[19.4.0.0*3,8*]pentacosa-1(21),3,5,7,22,24-hexaen-23-yl]-pyridine-2-carbonitrile], the MIC stood at 1 µg/mL (≈ 1.24 µM).
The result for `CCN1C(=O)[C@H](CCCCN)NC(=O)[C@H](CCCN)NCc2cccnc2Sc2c(Cl)ccc(C(F)(F)F)c2CNC(=O)[C@@H]1Cc1c[nH]c2ccccc12` [Example 79, (11S,14S,17S)-14-(4-Amino-butyl)-11-(3-amino-propyl)-25-chloro-16-ethyl-17-(1H-indol-3-ylmethyl)-22-trifluoromethyl-2-thia-4,10,13,16,19-pentaaza-tricyclo[19.4.0.0*3,8*]pentacosa-1(25),3(8),4,6,21,23-hexaene-12,15,18-trione] reads 0.25 µg/mL (≈ 0.318 µM); that for `Cc1[nH]c2ccccc2c1C[C@H]1C(=O)NCc2cc(Cl)cc(Cl)c2Sc2ncccc2CN[C@@H](CCCN)C(=O)N[C@@H](CCCCN)C(=O)N1C` [Example 76, (11S,14S,17S)-14-(4-Amino-butyl)-11-(3-amino-propyl)-23,25-dichloro-16-methyl-17-(2-methyl-1H-indol-3-ylmethyl)-2-thia-4,10,13,16,19-pentaaza-tricyclo[19.4.0.0*3,8*]pentacosa-1(25),3(8),4,6,21,23-hexaene-12,15,18-trione], 0.12 µg/mL (≈ 0.159 µM).
The result for `CN1C(=O)[C@H](CCCCN)NC(=O)[C@H](CCCN)NCc2cccnc2Sc2c(Cl)cc(-c3ccc(S(N)(=O)=O)cc3)cc2CNC(=O)[C@@H]1Cc1c[nH]c2ccccc12` [Example 214, 4-[(11S,14S,17S)-14-(4-Amino-butyl)-11-(3-amino-propyl)-25-chloro-17-(1H-indol-3-ylmethyl)-16-methyl-12,15,18-trioxo-2-thia-4,10,13,16,19-pentaaza-tricyclo[19.4.0.0*3,8*]pentacosa-1(21),3,5,7,22,24-hexaen-23-yl]-benzenesulfonamide] reads 0.25 µg/mL (≈ 0.291 µM); that for `CN1C(=O)[C@H](CCCCN)NC(=O)[C@H](CCCN)NCc2ccccc2Sc2c(F)ccc(F)c2CNC(=O)[C@@H]1Cc1c[nH]c2ccccc12` [Example 29, (12S,15S,18S)-15-(4-Amino-butyl)-18-(3-amino-propyl)-4,7-difluoro-12-(1H-indol-3-ylmethyl)-13-methyl-2-thia-10,13,16,19-tetraaza-tricyclo[19.4.0.0*3,8*]pentacosa-1(21),3,5,7,22,24-hexaene-11,14,17-trione], 2 µg/mL (≈ 2.83 µM).
The result for `CCN1C(=O)[C@H](CCCCN)NC(=O)[C@H](CCCN)NCc2ccccc2Sc2c(C)cccc2CNC(=O)[C@@H]1Cc1c[nH]c2ccccc12` [Example 46, (12S,15S,18S)-15-(4-Amino-butyl)-18-(3-amino-propyl)-13-ethyl-12-(1H-indol-3-ylmethyl)-4-methyl-2-thia-10,13,16,19-tetraaza-tricyclo[19.4.0.0*3,8*]pentacosa-1(21),3,5,7,22,24-hexaene-11,14,17-trione] reads 1 µg/mL (≈ 1.43 µM).
As for `CN1C(=O)[C@H](CCCCN)NC(=O)[C@H](CCCN)NCc2cccnc2Sc2cccc(Cl)c2CNC(=O)[C@@H]1Cc1c[nH]c2ccccc12` [Example 34, (11S,14S,17S)-14-(4-Amino-butyl)-11-(3-amino-propyl)-22-chloro-17-(1H-indol-3-ylmethyl)-16-methyl-2-thia-4,10,13,16,19-pentaaza-tricyclo[19.4.0.0*3,8*]pentacosa-1(25),3,5,7,21,23-hexaene-12,15,18-trione], the MIC was determined as 16 µg/mL (≈ 22.7 µM).
As for `CN1C(=O)[C@H](CCCCN)NC(=O)[C@H](CCCN)NCc2cc(F)ccc2Sc2c(Cl)cccc2CNC(=O)[C@@H]1Cc1c[nH]c2ccccc12` [Example 64, (12S,15S,18S)-15-(4-Amino-butyl)-18-(3-amino-propyl)-4-chloro-23-fluoro-12-(1H-indol-3-ylmethyl)-13-methyl-2-thia-10,13,16,19-tetraaza-tricyclo[19.4.0.0*3,8*]pentacosa-1(25),3,5,7,21,23-hexaene-11,14,17-trione], the MIC worked out at 32 µg/mL (≈ 44.3 µM).
Consider `CN1C(=O)[C@H](CCCCN)NC(=O)[C@H](CCCN)NCc2ccccc2Sc2c(cc(-c3ccccc3)cc2C(F)(F)F)CNC(=O)[C@@H]1Cc1c[nH]c2ccccc12` [Example 128, (12S,15,18S)-15-(4-Amino-butyl))-18-(3-amino-propyl)-12-(1H-indo-3-ylmethyl)-13-methyl-6-phenyl-4-trifluoromethyl-2-thia-10,13,16,19-tetraaza-tricyclo[19.4.0.0*3,8*]pentacosa-1(25),3,5,7,21,23-hexaene-11,14,17-trione], for which the MIC worked out at 2 µg/mL (≈ 2.46 µM).

The MIC is the least concentration at which growth counts as inhibited.
